Consider 32 molecules from patent publication US20260035387A1 (BIOGEN MA INC., priority 2022, published 2026).

Where only a bound is given, the exact number is not on record here.

The assay concerns mutant Huntington (HTT) protein. Nature of the assay: HTT Mutant HTRF iPSC assay (mHTT protein lowering). The class given is cell-based. The note with it: human iPSC derived from a HTT patient with a poly-Q49 mutation. On the technique in general: In TR-FRET formats the signal depends on donor and acceptor labels being close together.
As usually defined, the IC50 is the point on the concentration scale where inhibition reaches its midpoint. Low readings indicate inhibition by little substance, high ones a need for much substance. Turning to `Cc1cn2cc(NC(=O)c3cc4ccc(N5CCC(N6CC(C)(C)C6)CC5)nc4s3)ccc2n1` [Compound 17, 6-(4-(3,3-dimethylazetidin-1-yl)piperidin-1-yl)-N-(2-methylimidazo[1,2-a]pyridin-6-yl)thieno[2,3-b]pyridine-2-carboxamide], the 50% inhibitory concentration (IC50) was 1 to 9 µM.
Consider `Cc1cn2cc(NC(=O)c3cc4ccc(N5C[C@@H](C)N(C)[C@@H](C)C5)nc4s3)ccc2n1` [Compound 18, N-(2-methylimidazo[1,2-a]pyridin-6-yl)-6-((3R,5S)-3,4,5-trimethylpiperazin-1-yl)thieno[2,3-b]pyridine-2-carboxamide], for which the IC50 was below 0.1 µM.
To `Cc1cn2cc(NC(=O)c3cc4ccc(N5CCC(N6CCCC6)C5)nc4s3)ccc2n1` (centres unmarked) [Compound 19, 6-([1,3′-bipyrrolidin]-1′-yl)-N-(2-methylimidazo[1,2-a]pyridin-6-yl)thieno[2,3-b]pyridine-2-carboxamide] belongs 0.1 to 1 µM.
To `Cc1cn2cc(NC(=O)c3cc4ccc(N5CCC6(CCN(C)CC6)CC5)nc4s3)ccc2n1` [Compound 20] belongs 0.1 to 1 µM.
To `Cc1cn2cc(NC(=O)c3cc4ccc(N5C[C@H]6CN(C)C[C@H]6C5)nc4s3)ccc2n1` [Compound 21, 6-((3aR,6aS)-5-methylhexahydropyrrolo[3,4-c]pyrrol-2(1H)-yl)-N-(2-methylimidazo[1,2-a]pyridin-6-yl)thieno[2,3-b]pyridine-2-carboxamide] belongs 0.1 to 1 µM; to `Cc1cn2cc(NC(=O)c3cc4ccc(N5CC(N(C)C)C5)nc4s3)ccc2n1` [Compound 22, 6-(3-(dimethylamino)azetidin-1-yl)-N-(2-methylimidazo[1,2-a]pyridin-6-yl)thieno[2,3-b]pyridine-2-carboxamide], 1 to 9 µM; to `Cc1cn2cc(NC(=O)c3cc4ccc(N(C)CCN(C)C)nc4s3)ccc2n1` [Compound 23, 6-((2-(dimethylamino)ethyl)(methyl)amino)-N-(2-methylimidazo[1,2-a]pyridin-6-yl)thieno[2,3-b]pyridine-2-carboxamide], 0.1 to 1 µM.
With `Cc1cn2cc(NC(=O)c3cc4ccc(N5C[C@@H]6[C@H](C5)[C@H]6N(C)C)nc4s3)ccc2n1` [Compound 24, 6-((1R,5S,6s)-6-(dimethylamino)-3-azabicyclo[3.1.0]hexan-3-yl)-N-(2-methylimidazo[1,2-a]pyridin-6-yl)thieno[2,3-b]pyridine-2-carboxamide], the 50% inhibitory concentration (IC50) is 1 to 9 µM.
To `Cc1cn2cc(NC(=O)c3cc4ccc(N5CC6CCC5CN6C)nc4s3)ccc2n1` (centres unmarked) [Compound 27, 6-(5-methyl-2,5-diazabicyclo[2.2.2]octan-2-yl)-N-(2-methylimidazo[1,2-a]pyridin-6-yl)thieno[2,3-b]pyridine-2-carboxamide] belongs 0.1 to 1 µM; to `CC(=O)N1C[C@@H]2CN(c3ccc4cc(C(=O)Nc5ccc6nc(C)cn6c5)sc4n3)C[C@@H]2C1` [Compound 29, 6-((3aR,6aS)-5-acetylhexahydropyrrolo[3,4-c]pyrrol-2(1H)-yl)-N-(2-methylimidazo[1,2-a]pyridin-6-yl)thieno[2,3-b]pyridine-2-carboxamide], 1 to 9 µM; to `Cc1cn2cc(NC(=O)c3cc4ccc(N5CCN(C)c6ncccc6C5)nc4s3)ccc2n1` [Compound 31, 6-(1-methyl-1,2,3,5-tetrahydro-4H-pyrido[2,3-e][1,4]diazepin-4-yl)-N-(2-methylimidazo[1,2-a]pyridin-6-yl)thieno[2,3-b]pyridine-2-carboxamide], 0.1 to 1 µM.
To `Cc1cn2cc(NC(=O)c3cc4ccc(N5CC6CCC(N(C)C)CC6C5)nc4s3)ccc2n1` (centres unmarked) [Compound 32, 6-(5-(dimethylamino)octahydro-2H-isoindol-2-yl)-N-(2-methylimidazo[1,2-a]pyridin-6-yl)thieno[2,3-b]pyridine-2-carboxamide] belongs 1 to 9 µM.
To `Cc1cn2cc(NC(=O)c3cc4ccc(N5C[C@@H](C)N(CC(F)(F)F)[C@@H](C)C5)nc4s3)ccc2n1` [Compound 33] belongs 0.1 to 1 µM; to `Cc1cn2cc(NC(=O)c3cc4ccc(N5CCC(N6CC(C)(C)C6)C5)nc4s3)ccc2n1` (centres unmarked) [Compound 35, 6-(3-(3,3-dimethylazetidin-1-yl)pyrrolidin-1-yl)-N-(2-methylimidazo[1,2-a]pyridin-6-yl)thieno[2,3-b]pyridine-2-carboxamide], 0.1 to 1 µM; to `Cc1cn2cc(NC(=O)c3cc4ccc(N5CCC6C(CCCN6C)C5)nc4s3)ccc2n1` (centres unmarked) [Compound 36, N-(2-methylimidazo[1,2-a]pyridin-6-yl)-6-(1-methyloctahydro-1,6-naphthyridin-6(2H)-yl)thieno[2,3-b]pyridine-2-carboxamide], 0.1 to 1 µM.
In turn, `Cc1cn2cc(NC(=O)c3cc4ccc(N(C)C5CN6CCC5CC6)nc4s3)ccc2n1` (centres unmarked) [Compound 38, 6-(methyl(quinuclidin-3-yl)amino)-N-(2-methylimidazo[1,2-a]pyridin-6-yl)thieno[2,3-b]pyridine-2-carboxamide] came in with an IC50 of 0.1 to 1 µM.
For `Cc1cn2cc(NC(=O)c3cc4ccc(Nc5ccc(CN6CCCC6)cc5)nc4s3)ccc2n1` [Compound 39, N-(2-methylimidazo[1,2-a]pyridin-6-yl)-6-((4-(pyrrolidin-1-ylmethyl)phenyl)amino)thieno [2,3-b]pyridine-2-carboxamide], the half-maximal inhibitory concentration (IC50) is 1 to 9 µM.
To `Cc1cn2cc(NC(=O)c3cc4ccc(N5CCCN(C)CC5)nc4s3)ccc2n1` [Compound 40, 6-(4-methyl-1,4-diazepan-1-yl)-N-(2-methylimidazo[1,2-a]pyridin-6-yl)thieno[2,3-b]pyridine-2-carboxamide] belongs 0.1 to 1 µM.
To `Cc1cn2cc(NC(=O)c3cc4ccc(NCC(C)(C)CN(C)C)nc4s3)ccc2n1` [Compound 41, 6-((3-(dimethylamino)-2,2-dimethylpropyl)amino)-N-(2-methylimidazo[1,2-a]pyridin-6-yl)thieno[2,3-b]pyridine-2-carboxamide] belongs 1 to 9 µM; to `Cc1cn2cc(NC(=O)c3cc4ccc(Nc5cccc(N6CC(C)(C)C6)c5)nc4s3)ccc2n1` [Compound 42, 6-((3-(3,3-dimethylazetidin-1-yl)phenyl)amino)-N-(2-methylimidazo[1,2-a]pyridin-6-yl)thieno[2,3-b]pyridine-2-carboxamide], 1 to 9 µM; to `Cc1cn2cc(NC(=O)c3cc4ccc(Nc5ccc(N6CC(C)(C)C6)cc5)nc4s3)ccc2n1` [Compound 44, 6-((4-(3,3-dimethylazetidin-1-yl)phenyl)amino)-N-(2-methylimidazo[1,2-a]pyridin-6-yl)thieno[2,3-b]pyridine-2-carboxamide], 1 to 9 µM.
`Cc1cn2cc(NC(=O)c3cc4ccc(N5CC6CCCN6CC5C)nc4s3)ccc2n1` (centres unmarked) [Compound 45, 6-(3-methylhexahydropyrrolo[1,2-a]pyrazin-2(1H)-yl)-N-(2-methylimidazo[1,2-a]pyridin-6-yl)thieno[2,3-b]pyridine-2-carboxamide] yielded an IC50 of 0.1 to 1 µM.
On to `CCN1Cc2cccc(Nc3ccc4cc(C(=O)Nc5ccc6nc(C)cn6c5)sc4n3)c2C1` [Compound 46, 6-((2-ethylisoindolin-4-yl)amino)-N-(2-methylimidazo[1,2-a]pyridin-6-yl)thieno[2,3-b]pyridine-2-carboxamide], for which the half-maximal inhibitory concentration (IC50) lay within 1 to 9 µM.
Consider `Cc1cn2cc(NC(=O)c3cc4ccc(Nc5ccc6c(c5)N(C)CCN(C)C6)nc4s3)ccc2n1` [Compound 47, 6-((1,4-dimethyl-2,3,4,5-tetrahydro-1H-benzo[e][1,4]diazepin-8-yl)amino)-N-(2-methylimidazo[1,2-a]pyridin-6-yl)thieno[2,3-b]pyridine-2-carboxamide], for which the IC50 lay in the range of 1 to 9 µM.
To `Cc1cn2cc(NC(=O)c3cc4ccc(N5CCC5CN(C)C)nc4s3)ccc2n1` (centres unmarked) [Compound 48, 6-(2-((dimethylamino)methyl)azetidin-1-yl)-N-(2-methylimidazo[1,2-a]pyridin-6-yl)thieno[2,3-b]pyridine-2-carboxamide] belongs 1 to 9 µM.
To `CN(C)C1CCN(c2ccc3cc(C(=O)Nc4ccc5[nH]c(=O)n(C)c5c4)sc3n2)C1` (centres unmarked) [Compound 49, 6-(3-(dimethylamino)pyrrolidin-1-yl)-N-(3-methyl-2-oxo-2,3-dihydro-1H-benzo[d]imidazol-5-yl)thieno[2,3-b]pyridine-2-carboxamide] belongs 1 to 9 µM; to `Cc1cn2cc(NC(=O)c3cc4ccc(N5CC[C@H](N(C)C)C5)nc4s3)nc(C)c2n1` [Compound 50, (S)-6-(3-(dimethylamino)pyrrolidin-1-yl)-N-(2,8-dimethylimidazo[1,2-a]pyrazin-6-yl)thieno[2,3-b]pyridine-2-carboxamide], 0.1 to 1 µM; to `Cc1cn2cc(NC(=O)c3cc4ccc(N5CC[C@@H](N(C)C)C5)nc4s3)nc(C)c2n1` [Compound 51, (R)-6-(3-(dimethylamino)pyrrolidin-1-yl)-N-(2,8-dimethylimidazo[1,2-a]pyrazin-6-yl)thieno[2,3-b]pyridine-2-carboxamide], below 0.1 µM.
To `Cc1cn2nc(NC(=O)c3cc4ccc(N5CC[C@H](N(C)C)C5)nc4s3)ccc2n1` [Compound 52, (S)-6-(3-(dimethylamino)pyrrolidin-1-yl)-N-(2-methylimidazo[1,2-b]pyridazin-6-yl)thieno[2,3-b]pyridine-2-carboxamide] belongs 0.1 to 1 µM; to `Cc1cn2nc(NC(=O)c3cc4ccc(N5CC[C@@H](N(C)C)C5)nc4s3)ccc2n1` [Compound 53, (R)-6-(3-(dimethylamino)pyrrolidin-1-yl)-N-(2-methylimidazo[1,2-b]pyridazin-6-yl)thieno[2,3-b]pyridine-2-carboxamide], 1 to 9 µM; to `Cc1cn2cc(NC(=O)c3cc4ccc(N5CC[C@H](N(C)C)C5)nc4s3)cc(F)c2n1` [Compound 54, 6-[(3S)-3-(dimethylamino)pyrrolidin-1-yl]-N-(8-fluoro-2-methyl-imidazo[1,2-a]pyridin-6-yl)thieno[2,3-b]pyridine-2-carboxamide], below 0.1 µM.
For the molecule `Cc1cn2cc(NC(=O)c3cc4ccc(N5CC[C@@H](N(C)C)C5)nc4s3)cc(F)c2n1` [Compound 55, 6-[(3R)-3-(dimethylamino)pyrrolidin-1-yl]-N-(8-fluoro-2-methyl-imidazo[1,2-a]pyridin-6-yl)thieno[2,3-b]pyridine-2-carboxamide], the IC50 was below 0.1 µM.
